These results are taken from PMC10460389, “Design of 8-mer peptides that block Clostridioides difficile toxin A in intestinal cells” (Communications Biology, 2023).

The subject of one test is C. diff. infection. To be noted: antibiotic treatment (metronidazole and vancomycin); cited from earlier work. An excerpt:
Multiple therapeutic approaches have been developed to treat C. diff. infection. The standard practice is treatment with antibiotics (metronidazole and vancomycin), but in 20% of cases infection reoccurs. Exposure to these antibiotics alters the microbial community in the gut, facilitating colonization by C. diff[21].

A further test has as its system TcdA GTD catalytic site. To be noted: cited from earlier work.
The test system of test [1] is small intestinal (jejunum) cells exposed to TcdA. Particulars: cited from earlier work.
In a further test the test system is TcdA GTD. Particulars: 0.5 μM UDP-Glucose-Fluorescein 15 min; vs no-TcdA-AF594 no-UDP-Glucose-Fluorescein control RP(-T -U) for SA1; two-tailed T-test.

For `Cc1ncc([N+](=O)[O-])n1CCO` [metronidazole], the “cases in which infection reoccurs” value with C. diff. infection is reported as 20%.

Regarding `CN[C@H](CC(C)C)C(=O)N[C@H]1C(=O)N[C@@H](CC(N)=O)C(=O)N[C@H]2C(=O)N[C@H]3C(=O)N[C@H](C(=O)N[C@H](C(=O)O)c4cc(O)cc(O)c4-c4cc3ccc4O)[C@H](O)c3ccc(c(Cl)c3)Oc3cc2cc(c3O[C@@H]2O[C@H](CO)[C@@H](O)[C@H](O)[C@H]2O[C@H]2C[C@](C)(N)[C@H](O)[C@H](C)O2)Oc2ccc(cc2Cl)[C@H]1O` [vancomycin], the “cases in which infection reoccurs” value in the test with C. diff. infection was 20%.

For the compound “DGWIQHYKHR [NPC, computationally designed 10-mer peptide from previous work]”, the ΔGbinding in the test on TcdA GTD catalytic site is listed as -6.15. The “neutralization of TcdA in jejunum / small intestinal cells” value in test [1] is on record as “neutralized toxin A in jejunum cells”.

For “GMFWQHRRHD [NPB, computationally designed 10-mer peptide from previous work]”, the ΔGbinding in the test on TcdA GTD catalytic site is recorded as -11.35. Besides, in test [1], the “neutralization of TcdA in jejunum / small intestinal cells” value is “neutralized toxin A in jejunum cells”.

With HEWGRRHN [SA7], in the test with TcdA GTD, the “change in green fluorescence from center to halo (TcdA binding) region” value is given as “All peptides except SA7 showed a significant (p < 0.005) decrease in green fluorescence”.
